Laboratory results as given in patent US20260335282A1, “NOVEL 3-ARYLIDENE-2-INDOLINONE DERIVATIVES FOR THERAPEUTIC USE” (ISTANBUL UNIVERSITESI REKTORLUGU, priority 2022, published 2026).
“Also recorded” adds a separate entry of the source. Where two headings read alike, the source gives them in different places.

What was measured:
[1] = system: pancreas and kidney cancer cells; assay: Apoptosis detection, Annexin V/PI flow cytometry, pancreas and kidney cancer cells; type: cell-based, human
Description: (§1) After incubation with 2-indolinone compounds (IC50 μM concentration; 48 and/or 72 hours), cells are washed twice with PBS and the cell pellet is suspended in Annexin V binding buffer. After this incubation, cells are incubated with FITC-conjugated Annexin V and propidium iodine staining solution for 15 minutes in the dark and at room temperature. Then, cells are analyzed by flow cytometry (Beckman coulter, Navios) (Wlodkowic, D., Skommer, J, Darzynkiewicz, Z. 2009. Flow cytometry-based apoptosis detection, Methods Mol Biol., 559, 1-14).
Whether the 2-indolinone derivatives (5) with the highest selectivity index and general TKI activity stimulated apoptosis and necrosis is determined by Annexin V and propidium iodine staining in pancreas and kidney cancer cells. Annexin V/PI flow cytometry apoptosis values of the tested compounds Y1, Y2, Y3, Y4, Y8 and Y14 are found to be 40% and above in correlation with MTT results. The apoptosis rates of the control groups and the substances are analyzed by t test in GraphPad version 9.0.

MDA-MB-231 cells = assay: MTT cytotoxicity, breast cancer cells MDA-MB-231; type: cell-based, human; conditions: for IC50: MTT, no * mark (incubation time not given)
Summary of the method: (§2)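 Cells seeded at 5000 per well were exposed next day to compounds at 0.1, 1, 5 and 10 μM for 48 and/or 72 h. MTT (5 mg/ml) was added for 4 h, formazan dissolved in DMSO, and absorbance read at 570 nm against 630 nm. IC50 came from dose-response curves of % viability versus DMSO controls.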

MCF-10F/Beas2b cells = assay: MTT cytotoxicity, healthy cells MCF-10F/Beas2b; type: cell-based, human; conditions: for IC50: MTT; for Selectivite Index (SI), MCF-10F/Beas2b (Table 1): MCF-10F/Beas2b vs breast or kidney cancer cells
Summary of the method: as §2

MCF-7 cells = assay: MTT cytotoxicity, breast cancer cells MCF-7; type: cell-based, human; conditions: for IC50: MTT
Summary of the method: as §2

HUVEC cells = assay: MTT cytotoxicity, healthy cells HUVEC; type: cell-based, human; conditions: for IC50: MTT; for Selectivite Index (SI), HUVEC (Table 1): HUVEC vs breast or kidney cancer cells
Summary of the method: as §2

[2] = system: general tyrosine kinase activity in MIA PaCa-2 pancreas cancer cells; assay: General tyrosine kinase activity (ELISA) in MIAPaCa-2 cells; type: cell-based, human; conditions: 72 hours, IC50 concentration
Description: Takara Universal Tyrosine Kinase Assay Kit is used to determine the effects of 11 2-indolinone compounds (Y1, Y2, Y3, Y4, Y5, Y8, […], […], Y21, Y23, 20C, 22C) on general tyrosine kinase activity in cancer cells. Cells are seeded in 6-well plates (4.10^5 cells/well) and the IC50 concentration of each selected molecule is performed to the cells for 48 or 72 hours. Cells in the control group are incubated with medium only. At the end of the incubation period, the cells in each well are washed with PBS and cells are removed from the wells using a cell scraper via 1 ml of the extraction buffer in the kit. The cell lysate is transferred to ependorf tubes and centrifuged at 10.000 g for 10 minutes at +4° C. and the supernatant is used as a sample for activity determination. After the extracts obtained from the control and experimental groups are diluted 1:25, 40 μl extracts is transferred to two wells in the 96-well plate in the kit. In addition, the standard solution in the kit is diluted according to the kit instructions and each concentration is transferred 40 μl into three wells. 10 μl of 40 mM ATP-2Na solution is added to all wells and the plate is incubated at 37° C. for 30 minutes. After incubation, all wells are washed 4 times with wash buffer. 100 μl of blocking solution is added to each well and incubated again at 37° C. for 30 minutes. After incubation, the liquid in the wells is discarded and 50 μl of anti-phosphotyrosine-HRP solution is added to each well and incubated at 37° C. for 30 minutes. The wells are washed again four times with wash buffer and 100 μl of HRP-substrate solution (TMBZ) is added to each well and incubated at 37° C. for 15 minutes. The reaction is finished by adding 100 μl of stop solution to each well and the optical density in each well is measured at 405 nm with a microplate reader (BioTek, USA). The tyrosine kinase activity in each sample is calculated from the standard curve obtained from the absorbance values of the standard solutions with the kit (Chan W Y, Lau P M, Yeung K W, Kong S K. The second generation tyrosine kinase inhibitor dasatinib induced eryptosis in human erythrocytes—An in vitro study. Toxicol Lett. 2018; 295:10-21). This activity is normalized compared to the control group by dividing by the amount of protein in each sample.
The effects of 11 2-indolinone compounds (Y1, Y2, Y3, Y4, Y5, Y8, Y14, Y21, Y23, 20C and 22C) having the structure of formula (5), which are prominent with their cytotoxicity in A498, MIAPaCa-2 and HCT-116 cancer cell lines and nontoxic properties in healthy cells, on general tyrosine kinase activity in cancer cells are determined.

MIAPaCa-2 cells [3] = assay: MTT cytotoxicity, pancreas cancer cells MIAPaCa-2; type: cell-based, human
Summary of the method: (§3)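 Cells were seeded at 5000 per well and treated next day with compound at 0.1, 1, 5 and 10 μM (final) for 48 and/or 72 h, with matched DMSO controls. MTT was added for 4 h and formazan was dissolved in DMSO and read at 570/630 nm. % viability against control gave IC50 from dose-response curves.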

A549 cells = assay: MTT cytotoxicity, lung cancer cells A549; type: cell-based, human
Summary of the method: as §2

HCT-116 cells = assay: MTT cytotoxicity, colon cancer cells HCT-116; type: cell-based, human
Summary of the method: as §3

MIAPaCa-2 cells [4] = assay: Apoptosis/necrosis detection, Annexin V/PI flow cytometry, MiaPaca-2; type: cell-based, human
Description: as §1

HT-29 cells = assay: MTT cytotoxicity, colon cancer cells HT-29; type: cell-based, human; conditions: MTT
Summary of the method: as §3

A498 cells = assay: MTT cytotoxicity, kidney cancer cells A498; type: cell-based, human; conditions: MTT
Summary of the method: as §2

CAKI-1 cells = assay: MTT cytotoxicity, kidney cancer cells CAKI-1; type: cell-based, human
Summary of the method: as §2

human cancer cells = assay: MTT cell viability, human cancer cells overall; type: cell-based; conditions: cell line as discussed at the place
From the text: The cytotoxicity, general tyrosine kinase inhibitory effects and cell death (apoptosis/necrosis) assays of 1-benzyl-3-(1H-indol-3-ylmethylidene)-1,3-dihydro-2H-indol-2-one derivatives (Formula 5) of the present invention are studied by the following methods. […] HUVEC (human umbilical vein endothelial cell), MCF-10F (human breast epithelial cell) and Beas2b (human lung bronchial epithelial cell) cell lines have been used as healthy control cells in MTT experiments.
Beas2b (human lung bronchiole epithelial cell) and HEK293 (renal tubule epithelium) cells used as normal cell lines were cultured in RPMI medium, and HUVEC (human umbilical cord endothelial cells) and MCF-10F (human breast epithelial cell) cells are cultured in DMEM medium containing 100 µg/ml penicillin/streptomycin. The cells, which covered 70% of the culture flask, are washed with phosphate buffer and then removed from the surface of the flask by application of trypsin-ethylenediamine tetraacetic acid (Trypsin-EDTA; 0.25%) solution, passaged, counted and seeded on appropriate plates before each experiment. Cells are treated with a total of 45 2-indolinone compounds (5) at concentrations of 0.1, 1, 5 and 10 μM. Stock compounds are prepared in 1 ml dimethylsulfoxide (DMSO) and 4 different dilutions were prepared with medium and performed to the cells. Control group cells are treated with DMSO at a similar concentration to the experimental groups.
MTT (3-(4,5-dimethylthiazol-2-yl)-2,5-diphenyl-2H-tetrazolium bromide) colorimetric assay provides quantitation of viable cells with ongoing mitochondrial activity in culture medium. According to the standard procedure in cell culture conditions, cells are maintained in RPMI-1640 and DMEM culture media containing 10% FBS and 1% penicillin/streptomycin. The trypan blue test is used for cell counts.
The effects of 45 2-indolinone compounds (5) on cell viability in all cancer cell lines are investigated by MTT assay. Cells are seeded in a 96-well flat bottom plate with 5000 cells in each well and 2-indolinone compounds (5) at concentrations of 0.1, 1, 5 and 10 μM are performed to the cells the next day. After 48 and/or 72 hours following treatment with 2-indolinone compounds, 50 μl of the supernatant is slowly discarded (as it was acid medium) and MTT at a concentration of 5 mg/ml is added to each well in a volume of 10 μl. After incubation for 4 hours, the formazan crystals formed in the wells are dissolved by adding 100 μl DMSO and the optical density is read at 570 nm test wavelength and 630 nm reference wavelength. Cell viability is expressed as % cell viability by comparing the absorbance of control and test wells. IC50 value is calculated from the dose-response curves prepared for each compound. In addition, the possible DMSO effect is eliminated by preparing negative control wells compatible with the amount of DMSO contained in the compounds. To understand the reaction of the compounds with MTT, cell-free (MTT+compounds) negative controls are prepared at the concentrations used (Mosmann, 1983). […] The absorbance values obtained are compared to the control and statistically evaluated by unpaired t-test using “Graphpad Prism 5.04” software. “P<0.05” is accepted as significant. When evaluating cytotoxic effects, the present inventors aim for the inventive compounds to be effective in cancer cells and ineffective in healthy cells. […]

[5] = read-out: IC50, MDA-MB-231 (breast)
[6] = no * mark (incubation time not specified)
[7] = MTT, no * mark (incubation time not specified)

SMILES	IC50 (MDA-MB-231 cells; [5]) [µM]	IC50 (MCF-7 cells; [6]) [µM]	IC50 (HUVEC cells; [6]) [µM]	IC50 (MIAPaCa-2 cells [3]; [7]) [µM]	IC50 (A549 cells; [6]) [µM]	IC50 (HCT-116 cells; [6]) [µM]	IC50 (HT-29 cells; [6]) [µM]	IC50 (A498 cells; [6]) [µM]	IC50 (CAKI-1 cells; [6]) [µM]	Selectivite Index (SI), MCF-10F/Beas2b (Table 1) (MCF-10F/Beas2b cells; cancer line not given)	Selectivite Index (SI), HUVEC (Table 1) (HUVEC cells; cancer line not given)	potency/selectivity compared with sunitinib malate (human cancer cells)	also measured
Cn1cc(/C=C2\C(=O)N(Cc3ccccc3)c3ccc(OC(F)(F)F)cc32)c2ccccc21 [Y14]	> 10	6.09	> 10	0.15	> 10	> 10	> 10	> 10	> 10				Annexin V/PI flow cytometry apoptosis values [1]: ≥ 40%; Selectivite Index, MCF-10F/Beas2b (Table 2) (MCF-10F/Beas2b cells; MCF-10F/Beas2b vs colon or pancreas cancer cells, cancer line not given): 45.06; IC50 (MCF-10F/Beas2b cells; [6]): 6.76 µM; Selectivite Index, HUVEC (Table 2) (HUVEC cells; HUVEC vs colon or pancreas cancer cells, cancer line not given): > 66.66; general tyrosine kinase activity compared to control [2]: significantly decreased; also recorded: decreased the general tyrosine kinase activity; necrosis compared to control (MIAPaCa-2 cells [4]; MiaPaca-2): did not cause necrosis; apoptosis (early and late) compared to control (MIAPaCa-2 cells [4]; MiaPaca-2, IC50 values): increase in apoptosis at IC50 values was statistically significant
O=C1/C(=C\c2c[nH]c3ccccc23)c2cccc(Cl)c2N1Cc1ccccc1 [22C]	8.4	0.57	> 10	> 10	> 10	> 10	> 10	> 10	2.49	> 17.54	> 17.54	much more potent and have higher SI values than the reference compound sunitinib malate	selectivity index (SI) (MCF-7 cells; MCF-10F vs MCF-7): > 17
Cc1cccc(CN2C(=O)/C(=C\c3c[nH]c4ccccc34)c3cccc(Cl)c32)c1 [27C]	0.81	3.67		> 10	> 10	> 10	> 10	2.4	> 10	> 12.34	1.28	much more potent and have higher SI values than the reference compound sunitinib malate	selectivity index (SI) (MDA-MB-231 cells; MCF-10F vs MDA-MB-231): > 12; IC50 (HUVEC cells; *: effective 72 hours after incubation): 1.04 µM
O=C1/C(=C\c2c[nH]c3ccccc23)c2cc(Cl)ccc2N1Cc1ccc(F)cc1 [17C]												more potent than sunitinib malate	IC50 (MDA-MB-231 cells; Homo sapiens, MDA-MB-231, read-out: IC50, MDA-MB-231 (breast)): > 10 µM; IC50 (MCF-10F/Beas2b cells; Homo sapiens, *: effective 72 hours after incubation): 2.66 µM; IC50 (MCF-10F/Beas2b cells; Homo sapiens, no * mark (incubation time not given)): 2.66 µM; cytotoxicity in healthy cells (MCF-10F/Beas2b cells; healthy cells): high in healthy cells; IC50 (MCF-7 cells; Homo sapiens, MCF7, *: effective 72 hours after incubation): 4.76 µM; IC50 (HUVEC cells; Homo sapiens, HUVEC, no * mark (incubation time not given)): 1.24 µM; IC50 (MIAPaCa-2 cells [3]; Homo sapiens, MIA PaCa-2, MTT, no * mark (incubation time not given)): 1.32 µM; IC50 (A549 cells; Homo sapiens, A549, no * mark (incubation time not given)): 1.11 µM; IC50 (HCT-116 cells; Homo sapiens, HCT-116, no * mark (incubation time not given)): 0.93 µM; IC50 (HT-29 cells; Homo sapiens, HT-29, no * mark (incubation time not given)): 2.07 µM; IC50 (A498 cells; Homo sapiens, A498, 72 h, *: effective 72 hours after incubation): 0.77 µM; IC50 (CAKI-1 cells; Homo sapiens, CAKI-1, *: effective 72 hours after incubation): 4.62 µM
